From patent US20150297637A1, “ACTIVATED CARBON COMPRISING AN ADSORBED IODIDE SALT IN A METHOD FOR TREATING CHRONIC BRONCHITIS” (PHARMALUNDENSIS AB, priority 2012, published 2015) come the findings set out here.

The test system of the assay is cough and sputum production in a patient with chronic bronchitis. Description: Use of KI-impregnated charcoal for treating a patient with chronic bronchitis. In kind it is in vivo, human. Conditions: one patient; capsule with 10 mg KI per day for one month. The source says:
A person has for several years experienced increasing problems with cough and mucous production for long periods. They were diagnosed as suffering from chronic bronchitis. They were prescribed standard treatment including corticosteroids, anti-cholinergics, beta2-stimulants and mucolytics such as acetylcysteine.
Since the chronic bronchitis caused considerable inconvenience, they examined alternative ways to reduce the symptoms.
To clarify if the improvement of the chronic bronchitis by KI-impregnated activated charcoal was caused by iodide, […] then took a capsule with 10 mg (which amount is considerably higher than the amount of iodide in the KI-impregnated activated charcoal, 300 mg×1.62%=4.9 mg) KI per day for one month.
Finally, they once again took 300 mg activated charcoal impregnated with 1.6% KI in a 00 vegetable capsule for one month.

Entries after “also recorded” stand apart in the source; their conditions may differ.

As to `[I-].[K+]` [KI, Potassium iodide], the “Cough and sputum production” value is recorded as “did not reduce the cough or sputum production at all; also recorded: no improvement of cough or sputum production”.
